US6960601B2, “Preparation and use of imidazole derivatives for treatment of obesity” (Bayer Pharmaceuticals Corporation, priority 2001, dated 2005)

What was measured:
[1] = Measurement of brain exposure; format: in vivo; settings: rat, brain homogenate, oral; 10 mg/kg p.o.; brains collected at 2 hours post-dosing; male obese Zucker fa/fa rats; read-out: brain homogenate exposure level
Method: Measurement of Brain Exposure
Male obese Zucker fa/fa rats were administered compounds, typically at 10 mg/kg p.o., and then brains were collected at 2 hours post-dosing for determination of brain concentration. Brains were weighed and homogenized with 4 mL 10 mM ammonium acetate buffer (pH 3), and the brain tissue homogenate samples were extracted via protein precipitation with acetonitrile. Samples were vortexed, centrifuged, and analyzed by liquid chromatography utilizing mass spectrometer selective detection (LC/MS/MS) using the heated nebulizer interface. Samples were quantitated using weighted (1/x^2) linear internal standard calibration curve. For example, when 1-(4-chlorophenyl)-2-(2-chlorophenyl)-N-(1-piperidinyl)-5-butyl-1H-imidazole-4-carboxamide was dosed at 10 mg/kg p.o., a brain homogenate exposure level of approximately 200 nM was determined; when 2-(2-chlorophenyl)-1-(4-chlorophenyl)-5-ethyl-N-[(1S,2S)-2-hydroxycyclohexyl]-1H-imidazole-4-carboxamide was dosed at 10 mg/kg p.o., a brain homogenate exposure level of approximately 200 nM was determined.

obese Zucker fa/fa rats = assay: Chronic feeding assay (body weight, food and water consumption); format: in vivo, rat; settings: 10 mg/kg p.o. once a day, day 6 of treatment
Source text: Evaluation of Compound's Efficacy on the Reduction of Body Weight and Food and Water Consumption in Obese Zucker fa/fa Rats
The purpose of this protocol is to determine the effect of chronic administration of an unknown compound on body weight and food and water consumption in obese Zucker fa/fa rats. Obese Zucker fa/fa rats are frequently used in the determination of compound efficacy in the reduction of body weight. This animal model has been successfully used in the identification and characterization of the efficacy profile of compounds that are or have been used in the management of body weight in obese humans (see, e.g., Al-Barazanji et al., Obes Res. 8:317-323, 2000; Assimacopoulos-Jeannet et al., Am. J. Physiol. 260(2 Pt 2):R278-283, 1991; Dryden et al., Horm. Metab. Res. 31:363-366, 1999; Edwards and Stevens, Pharmacol. Biochem. Behav. 47:865-872, 1994; Grinker et al., Pharmacol. Biochem. Behav. 12:265-275, 1980).
A typical study includes 60-80 male Zucker fa/fa (n=10/treatment group) with an average body weight of approximately 550 g. Rats are kept in standard animal rooms under controlled temperature and humidity and a 12/12 light dark cycle. Water and food are continuously available. Rats are single-housed in large rat shoeboxes containing grid floor. Animals are adapted to the grid floors and sham-dosed with study vehicle for at least four days before the recording of two-days baseline measurement of body weight and 24-hr food and water consumption. Rats are assigned to one of 6-8 treatment groups based upon their body weight on baseline. The groups are set up so that the mean and standard error of the mean of body weight were similar.
Animals are orally gavaged (2 mL/kg) daily before the dark phase of the LD/cycle for a pre-determined number of days (typically 6-14 days) with their assigned dose/compound. At this time, body weight, food and water consumption are measured. On the final day, animals are euthanized by CO2 inhalation, and the body weight is measured.

Structure (SMILES) | concentration at 2 h [1] | melting point | increase in body weight from baseline (obese Zucker fa/fa rats) | reduction in body weight gain as compared to the vehicle control group (obese Zucker fa/fa rats)
O=C(N[C@H]1CCCC[C@@H]1O)c1cn(-c2ccc(Cl)cc2)c(-c2ccccc2Cl)n1 [2-(2-chlorophenyl)-1-(4-chlorophenyl)-N-[(1S,2S)-2-hydroxycyclohexyl]-1H-imidazole-4-carboxamide] |  |  | approximately 2.4% | approximately 50%
Cl.O=C(NNc1ccc(C(F)(F)F)cc1)c1cn(-c2ccc(Cl)cc2)c(-c2ccccc2Cl)n1 [2-(2-chlorophenyl)-1-(4-chlorophenyl)-N′-[4-(trifluoromethyl)phenyl]-1H-imidazole-4-carbohydrazide hydrochloride] |  |  | approximately 1.8% | approximately 60%
Cc1c(C(=O)NC2CCCCC2)nc(-c2ccccc2Cl)n1-c1ccc([N+](=O)[O-])cc1 [Example 23, N-cyclohexyl-2-(2-chlorophenyl)-5-methyl-1-(4-nitrophenyl)-1H-imidazole-4-carboxamide] |  | 217 to 220 °C |  | 

Now from value to compound, other results behind:

concentration at 2 h [1] | melting point | Structure (SMILES) | increase in body weight from baseline (obese Zucker fa/fa rats) | reduction in body weight gain as compared to the vehicle control group (obese Zucker fa/fa rats)
~200 nM |  | CCCCc1c(C(=O)NN2CCCCC2)nc(-c2ccccc2Cl)n1-c1ccc(Cl)cc1 [1-(4-chlorophenyl)-2-(2-chlorophenyl)-N-(1-piperidinyl)-5-butyl-1H-imidazole-4-carboxamide] |  | 
~200 nM |  | CCc1c(C(=O)N[C@H]2CCCC[C@@H]2O)nc(-c2ccccc2Cl)n1-c1ccc(Cl)cc1 [2-(2-chlorophenyl)-1-(4-chlorophenyl)-5-ethyl-N-[(1S,2S)-2-hydroxycyclohexyl]-1H-imidazole-4-carboxamide] |  | 
